From US20110045097A1, “SOLID PHARMACEUTICAL COMPOSITION COMPRISING IRBESARTAN” (KRKA, d.d. Novo mesto, priority 2006, published 2011)
Counter-ions that a name gives are not always drawn.

Columns and labels:
[1] = as described in WO 05/025566; cited from earlier work
[2] = Solubility in dissolution media / solvents; format: physicochemical; settings: 0.01 M HCl or simulated gastric juice (pH=1.2)
Protocol: WO 05/025566 is directed to irbesartan-containing oral pharmaceutical formulations having improved dissolution profiles, and especially dissolution of 80% or more 15 minutes after dosing and of 90% or more 30 minutes after dosing.

| SMILES | Solubility in alcohol and CH2Cl2 [1] | Solubility in water [1] | Solubility as compared to the free irbesartan [2] |
| --- | --- | --- | --- |
| CCCCC1=NC2(CCCC2)C(=O)N1Cc1ccc(-c2ccccc2-c2nnn[nH]2)cc1 [irbesartan, 2-Butyl-3-[[2′-(1H-tetrazol-5-yl) [1,1′-biphenyl]-4-yl]methyl]-1,3-diazaspiro[4,4]-non-1-en-4-one] | slightly soluble | insoluble |  |
| CCCCC1=NC2(CCCC2)C(=O)N1Cc1ccc(-c2ccccc2-c2nnn[nH]2)cc1 [irbesartan-HCl, irbesartan hydrochloride] |  |  | higher |
